Experimental data reported in patent US6444850B1, “Fungicidial compounds having a fluorovinyloxphyenyl moiety and process for the preparation thereof” (priority 1997, dated 2002).

Tests used:
Erysiphae graminis = assay: Fungicidal activity against barley powdery mildew (BPM) disease; format: in vivo; details: for C. V. (%), Fungicidal activities against TLB at 10 ppm: Table 9 (Test Example 6); for C. V. (%) BPM: 50 ppm, control value, barley powdery mildew
Protocol: Erysiphae graminis was subcultured on a wheat plant in a laboratory. 15 g of barley seeds was sowed in a pot (diameter 6.5 cm) and cultured in a greenhouse for 7 days to obtain a barley plant having only a primary leaf. The barley plant was inoculated with spores by shaking thereover another plant infected by BPM. The inoculated barley plant was cultured in an incubator maintained at a temperature of 22 to 24° C. and a relative humidity of 50% for 7 days to induce BPM. L.A. on the leaf was measured to calculate an C.V.

[1] = system: Pyricularia oryzae Carvara KA301; format: in vivo; details: for C. V. (%) Fungicidal Activities against RCB at 10 ppm / C. V. (%) Fungicidal Activities against RCB at 10 ppm (TABLE 6): sprayed on Nakdong rice plant, control value from lesion area; for C. V. (%) RCB: 50 ppm, control value, rice blast
Puccinia recondita = assay: Fungicidal activity against wheat leaf rust (WLR) disease; format: in vivo; details: for C. V. (%), Fungicidal Activities against WLB at 10 ppm: Table 8 (Test Example 5); for C. V. (%) WLR: 50 ppm, control value, wheat leaf rust
Phytophthora infestans = format: in vivo; details: 50 ppm; control value, tomato late blight
Rhizoctonia solani AG-1 = assay: Fungicidal activity against rice sheath blight (RSB) disease; details: 50 ppm, control value
Protocol: 50 ml of the resulting solution was sprayed on leaves of a host plant. The plant was kept at room temperature for 24 hours to let the solvent evaporate, and then, a pathogenic fungus was inoculated thereonto. The plant was held in a humidity chamber for 24 hours, transferred to an plant growth room kept at 20 to 27° C. and a relative humidity of 60 to 80% and kept to induce disease. Subsequently, the lesion area(L.A.) attacked by the pathogenic fungus was measured according to a method of Cho(Cho, K. Y., Search Report by Korea Research Institute of Chemical Technology (1989))”. This procedure was repeated twice for each test. 10% Acetone solution containing 250 ppm of Tween-20 was used as a control.
The fungicidal activity of the compound of the present invention is repressed by a control value (C.V.) calculated as; [formula]
Rhizoctonia solani AG-1 was cultured on a PDA medium(potato 200 g, dextrose 20 g, agar 20 g and distilled water 1 l) for 3 days and the agar disc (diameter 0.6 cm) was inoculated and cultured on sterilized wheat bran medium in a 1 l bottle at 26 to 28° C. for 7 days. A mycelial mass was ground using a homogenizer, inoculated uniformly on soil of a pot wherein a Nakdong rice plant having 2 or 3 leaves and an height of 5 cm grew, and kept in humidity polyvinyl chamber for 5 days to induce RSB. L.A. on a leaf sheath was measured to calculate an C.V.

Botrytis cinerae = assay: Fungicidal activity against cucumber gray mold rot (CGM) disease; format: in vivo; details: 50 ppm, control value
Protocol: Botrytis cinerae, which was isolated from cucumber infected thereby, was inoculated on a PDA agar medium and cultured under a 12L/12D cycle at 25° C. for 15 days to form spore. The spores were scraped, filtered through a gauze and then suspended in potato dextrose liquid medium at a concentration of 1×10^6 spore/ml. The spore suspension was sprayed on a cucumber plant having one leaf. The cucumber plant was held in a humidified room at 20° C. for 3 days. L.A. on a leaf was measured to calculate an C.V.

SMILES	C. V. (%), Fungicidal activities against TLB at 10 ppm (Erysiphae graminis)	C. V. (%) BPM (Erysiphae graminis)	C. V. (%) Fungicidal Activities against RCB at 10 ppm [1]	C. V. (%) Fungicidal Activities against RCB at 10 ppm (TABLE 6) [1]	C. V. (%) RCB [1]	C. V. (%), Fungicidal Activities against WLB at 10 ppm (Puccinia recondita)	C. V. (%) WLR (Puccinia recondita)	C. V. (%) TLB (Phytophthora infestans)	C. V. (%) RSB (Rhizoctonia solani AG-1)	C. V. (%) CGM (Botrytis cinerae)
CNC(=O)C(=NOC)c1ccccc1COc1cccc(OC(F)=C(c2ccccc2)C(F)(F)F)c1 [Compound 48]	100%	98%	100%	100%	97%	100%	100%	70%	45%	28%
CON=C(C(=O)OC)c1ccccc1COc1cccc(OC(F)=C(c2ccc3c(c2)OCO3)C(F)(F)F)c1 [Compound 82]	97%	100%	–	–	50%	96%	98%	0%	45%	0%
CNC(=O)C(=COC)c1ccccc1COc1cccc(OC(F)=Cc2cccc(OC)c2)c1 [Compound 26]	–	88%	–	–	20%	–	70%	55%	35%	0%
CCCCc1ccc(C(=C(F)Oc2cccc(OCc3ccccc3C(=COC)C(=O)OC)c2)C(F)(F)F)cc1 [Compound 62]	–	98%	–	–	0%	–	93%	3%	35%	28%
CNC(=O)/C(=C/OC)c1ccccc1COc1cccc(OC(F)=C(c2ccccc2)C(F)(F)F)c1 [Compound 46, (2E)-N-methyl-3-methoxy-2-{2′-{3″-(2′″-fluoro-1′″-trifluoromethylstyryl)-2′″-oxy}phenoxymethyl}phenyl-2-propenoamide]	–	0%	–	–	0%	–	53%	11%	20%	27%
COC=C(C(=O)OC)c1ccccc1COc1cccc(OC(F)=C(c2cccc(C(F)(F)F)c2)C(F)(F)F)c1 [Compound 83]	100%	100%	–	–	25%	94%	100%	11%	50%	0%
CNC(=O)/C(=N/OC)c1ccccc1COc1cccc(OC(F)=C(c2cc(C)cc(C)c2)C(F)(F)F)c1 [Compound 70]	100%	100%	100%	100%	100%	100%	100%	0%	0%	0%
COC=C(C(=O)OC)c1ccccc1COc1cccc(OC(F)=C(c2ccc3c(c2)OCO3)C(F)(F)F)c1 [Compound 81]	100%	100%	–	–	86%	100%	100%	33%	65%	0%
CNC(=O)C(=COC)c1ccccc1COc1cccc(OC(F)=Cc2ccc(Cl)cc2)c1 [Compound 38]	–	8%	–	–	33%	–	0%	33%	5%	15%
CON=C(C(=O)OC)c1ccccc1COc1cccc(OC(F)=Cc2ccc(C)c(C)c2)c1 [Compound 15]	–	100%	–	–	92%	–	96%	25%	90%	15%
COC=C(C(=O)OC)c1ccccc1COc1cccc(OC(F)=C(c2cccs2)C(F)(F)F)c1 [Compound 105]	–	70%	–	–	96%	96%	100%	0%	78%	0%
CON=C(C(=O)OC)c1ccccc1COc1cccc(OC(F)=Cc2cc(C)cc(C)c2)c1 [Compound 19]	–	98%	–	–	100%	–	100%	33%	90%	0%
CNC(=O)C(=NOC)c1ccccc1COc1cccc(OC(F)=C(c2ccc(Cl)cc2)C(F)(F)F)c1 [Compound 91]	100%	100%	99%	99%	99%	100%	100%	64%	90%	17%
CNC(=O)C(=COC)c1ccccc1COc1cccc(OC(F)=Cc2cccc(C)c2)c1 [Compound 7]	–	0%	–	–	26%	–	0%	46%	10%	33%
CON=C(C(=O)OC)c1ccccc1COc1cccc(OC(F)=Cc2ccc(OC)cc2)c1 [Compound 31]	–	50%	–	–	93%	–	93%	84%	30%	0%
COC=C(C(=O)OC)c1ccccc1COc1cccc(OC(F)=C(c2ccc(Cl)cc2)C(F)(F)F)c1 [Compound 88]	100%	100%	–	–	92%	93%	98%	31%	25%	25%
CNC(=O)C(=NOC)c1ccccc1COc1cccc(OC(F)=C(c2ccc(C)cc2)C(F)(F)F)c1 [Compound 56]	100%	100%	92%	92%	97%	100%	100%	48%	65%	0%
CO/C=C(/C(=O)OC)c1ccccc1COc1cccc(OC(F)=C(c2ccccc2)C(F)(F)F)c1 [Compound 45, methyl (2E)-3-methoxy-2-{2′-{3′-(2′″-fluoro-1′″-trifluoromethylstyryl)-2′″-oxy}phenoxymethyl}phenyl-2-propenoate]	100%	100%	90%	90%	90%	100%	100%	0%	94%	0%
